Legend:
Format in all cases: in vivo
[1] = test system: pigweed (Amaranthus retroflexus); test: Test B pre-/postemergence plant response; conditions: Postemergence
Procedure, shortened: (§1)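 Seeds were sown in loam soil/sand blend and treated preemergence with compound in non-phytotoxic solvent mixture containing surfactant; postemergence sprays, same formulation, went onto plants 2 to 18 cm (1- to 4-leaf stage) in peat-based planting medium. Greenhouse 13 to 15 days, then visual rating versus untreated controls, 0 (no effect) to 100 (complete control).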

[2] = test system: bermudagrass (Cynodon dactylon); test: Test B pre-/postemergence plant response; conditions: for Plant response rating, Bermudagrass: Postemergence
Procedure, shortened: as §1

[3] = test system: Italian ryegrass (Lolium multiflorum); test: Test B pre-/postemergence plant response; conditions: Postemergence
Procedure, shortened: as §1

[4] = test system: lambsquarters (Chenopodium album); test: Test B pre-/postemergence plant response; conditions: Postemergence
Procedure, shortened: as §1

[5] = test system: ragweed (common ragweed, Ambrosia elatior); test: Test B pre-/postemergence plant response; conditions: Postemergence
Procedure, shortened: as §1

[6] = test system: galium (catchweed bedstraw, Galium aparine); test: Test B pre-/postemergence plant response; conditions: Postemergence
Procedure, shortened: as §1

[7] = test system: wheat (Triticum aestivum); test: Test B pre-/postemergence plant response; conditions: Postemergence
Procedure, shortened: as §1

[8] = test system: canarygrass (Phalaris minor); test: Test B postemergence plant response; conditions: Postemergence
Procedure, shortened: (§2)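 Plants grown in peat/vermiculite medium were sprayed postemergence at 2–18 cm height (1- to 4-leaf stage). After 13–15 days in the greenhouse, response was rated visually against untreated controls on a 0–100 scale (0 no effect, 100 complete control).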

[9] = test system: winter barley (Hordeum vulgare); test: Test B postemergence plant response; conditions: for Plant response rating, Barley: Postemergence
Procedure, shortened: as §2

[10] = test system: windgrass (Apera spica-venti); test: Test B postemergence plant response; conditions: Postemergence
Procedure, shortened: as §2

[11] = test system: chickweed (Stellaria media); test: Test B postemergence plant response; conditions: Postemergence
Procedure, shortened: as §2

[12] = 31 g ai/ha, 0 to 100 scale (0 no effect, 100 complete control)
[13] = 125 g ai/ha, scale 0 to 100 (0 no effect, 100 complete control)
[14] = 250 g ai/ha, scale 0 to 100 (0 no effect, 100 complete control), 13 to 15 days
[15] = 62 g ai/ha, postemergence, 0 is no effect, 100 is complete control, 13 to 15 days

## O=C1CCCC(O)=C1C(=O)c1cnc(-c2ccsc2)n(C2CCOCC2)c1=O [Compound 186]
[1]; [12]
  Plant response rating, Pigweed: 85
[1]; [13]
  Plant response rating, Pigweed: 100
[1]; [14]
  Plant response rating, Pigweed: 100
[2]; [15]
  Bermudagrass plant response rating (0 to 100 scale): 80
[2]; [12]
  Plant response rating, Bermudagrass: 80
[2]; [13]
  Plant response rating, Bermudagrass: 95
[2]; [14]
  Plant response rating, Bermudagrass: 98
[3]; [12]
  Plant response rating, Ryegrass, Italian: 0
[3]; [13]
  Plant response rating, Ryegrass, Italian: 0
[3]; [14]
  Plant response rating, Ryegrass, Italian: 30
[4]; [12]
  Plant response rating, Lambsquarters: 98
[4]; [13]
  Plant response rating, Lambsquarters: 100
[4]; [14]
  Plant response rating, Lambsquarters: 100
[5]; [12]
  Plant response rating, Ragweed: 85
[5]; [13]
  Plant response rating, Ragweed: 100
[5]; [14]
  Plant response rating, Ragweed: 100
[6]; [12]
  Plant response rating, Galium: 40
[6]; [13]
  Plant response rating, Galium: 70
[6]; [14]
  Plant response rating, Galium: 70
[7]; [12]
  Plant response rating, Wheat: 0
[7]; [13]
  Plant response rating, Wheat: 0
[7]; [14]
  Plant response rating, Wheat: 5
[8]; [12]
  Plant response rating, Canarygrass: 5
[8]; [13]
  Plant response rating, Canarygrass: 40
[8]; [14]
  Plant response rating, Canarygrass: 40
[9]; [15]
  Barley plant response rating (0 to 100 scale): 5
[9]; [12]
  Plant response rating, Barley: 0
[9]; [13]
  Plant response rating, Barley: 5
[9]; [14]
  Plant response rating, Barley: 5
[10]; [12]
  Plant response rating, Windgrass: 10
[10]; [13]
  Plant response rating, Windgrass: 50
[10]; [14]
  Plant response rating, Windgrass: 65
[11]; [12]
  Plant response rating, Chickweed: 95
[11]; [13]
  Plant response rating, Chickweed: 100
[11]; [14]
  Plant response rating, Chickweed: 100

Source: patent US8952024B2, “Herbicidal pyrimidone derivatives” (E I du Pont de Nemours and Company, priority 2009, dated 2015)
